IC50 data for 11 molecules are collected here from patent publication US20250197372A1 (priority 2020, published 2025).

Usually IC50 stands for the concentration that gives 50% inhibition.

Test [1] has as its target recombinant human GAA (acid alpha-glucosidase) (Homo sapiens, UniProt P10253). The experiment in a line: Acid alpha-glucosidase (GAA) assay (4-methylumbelliferyl-alpha-D-pyranoside substrate, fluorescence). It counts as biochemical. The procedure, abridged: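 Recombinant human enzyme preincubated 60 min at 37 °C with compound dilutions, then 4-methylumbelliferyl-alpha-D-pyranoside substrate added for 20 min at 37 °C. Stopped with glycine/NaOH pH 10; methylumbelliferone fluorescence (ex 365, em 440 nm) versus untreated enzyme; IC50 by 4-PL fit.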

The target of test [2] is T1, recombinant human GBA (beta-glucocerebrosidase) (Homo sapiens, UniProt P04062).
T1 sequence (P04062 40-536): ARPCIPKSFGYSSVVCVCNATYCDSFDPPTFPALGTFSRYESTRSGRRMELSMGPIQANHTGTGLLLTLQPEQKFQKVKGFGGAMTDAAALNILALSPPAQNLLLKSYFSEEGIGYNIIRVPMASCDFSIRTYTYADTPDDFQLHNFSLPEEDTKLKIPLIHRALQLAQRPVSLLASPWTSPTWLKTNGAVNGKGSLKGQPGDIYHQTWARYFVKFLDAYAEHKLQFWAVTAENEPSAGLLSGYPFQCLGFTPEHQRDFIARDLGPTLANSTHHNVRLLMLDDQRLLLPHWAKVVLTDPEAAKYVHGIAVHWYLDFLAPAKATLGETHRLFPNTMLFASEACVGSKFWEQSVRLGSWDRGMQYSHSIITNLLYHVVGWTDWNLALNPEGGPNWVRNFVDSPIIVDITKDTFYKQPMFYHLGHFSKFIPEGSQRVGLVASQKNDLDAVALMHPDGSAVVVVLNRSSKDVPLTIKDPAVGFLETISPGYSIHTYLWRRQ
The experiment in a line: Beta-glucocerebrosidase (GBA, glucosylceramidase) assay (4-methylumbelliferyl-beta-D-pyranoside substrate, fluorescence). The format is biochemical. The procedure, abridged:
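Recombinant human GBA preincubated with compound dilutions 60 min at 37 °C, then 4-methylumbelliferyl-beta-D-pyranoside added for 60 min at 37 °C. Stopped at pH 10 (glycine/NaOH); fluorescence ex 365/em 440 nm. IC50 from 4-PL fit of inhibition relative to untreated enzyme.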

Regarding `COCCc1ccc(CCCN2C[C@H](O)[C@@H](O)[C@H](O)[C@H]2CO)cc1` [Compound 1308, (2R,3R,4R,5S)-2-(hydroxymethyl)-1-{3-[4-(2-methoxyethyl)phenyl]propyl}piperidine-3,4,5-triol], the values for the concentration for half-maximal inhibition (IC50) in test [1] and in test [2] were 1680 nM and 50900 nM, respectively.
For the molecule `COc1ccc(CCCCCCCN2C[C@H](O)[C@@H](O)[C@H](O)[C@H]2CO)cc1` [Compound 1309, (2R,3R,4R,5S)-2-(hydroxymethyl)-1-[7-(4-methoxyphenyl)heptyl]piperidine-3,4,5-triol], the IC50 in test [1] amounted to 263 nM; in test [2], 2340 nM.
The corresponding values for `COc1ccc(CCCCCN2C[C@H](O)[C@@H](O)[C@H](O)[C@H]2CO)cc1` [Compound 1310, (2R,3R,4R,5S)-2-(hydroxymethyl)-1-[5-(4-methoxyphenyl)pentyl]piperidine-3,4,5-triol] are 1190 nM and 16900 nM.
For `OC[C@@H]1[C@@H](O)[C@H](O)[C@@H](O)CN1CCCCCCCCC1CNCCO1` (stereo partly drawn) [Compound 1311, (2R,3R,4R,5S)-2-(hydroxymethyl)-1-[8-(morpholin-2-yl)octyl]piperidine-3,4,5-triol], the 50% inhibitory concentration (IC50) in test [1] turned out to be 747 nM; in test [2], 26200 nM.
For `Cc1cc(NCc2ccc(CN3C[C@H](O)[C@@H](O)[C@H](O)[C@H]3CO)cc2)cc(-c2ncco2)c1` [Compound 1315, (2R,3R,4R,5S)-2-(hydroxymethyl)-1-{[4-({[3-methyl-5-(1,3-oxazol-2-yl)phenyl]amino}methyl)phenyl]methyl}piperidine-3,4,5-triol], the IC50 in test [1] is 440 nM; in test [2], over 100000 nM.
With `Cc1cc(NCc2ccc(CN3C[C@H](O)[C@@H](O)[C@H](O)[C@H]3CO)cc2)cc(-n2nccn2)c1` [Compound 1316, (2R,3R,4R,5S)-2-(hydroxymethyl)-1-{[4-({[3-methyl-5-(2H-1,2,3-triazol-2-yl)phenyl]amino}methyl)phenyl]methyl}piperidine-3,4,5-triol], the half-inhibitory concentration (IC50) in test [1] is 94 nM; in test [2], over 100000 nM.
For `Cc1cc(NCc2ccc(CN3C[C@H](O)[C@@H](O)[C@H](O)[C@H]3CO)cc2)cc(-c2ccco2)c1` [Compound 1317, (2R,3R,4R,5S)-1-{[4-({[3-(furan-2-yl)-5-methylphenyl]amino}methyl)phenyl]methyl}-2-(hydroxymethyl)piperidine-3,4,5-triol], in that order: 480 nM and 45100 nM.
Take `Cc1cc(NCc2cccc(CN3C[C@H](O)[C@@H](O)[C@H](O)[C@H]3CO)n2)cc(-c2ncccn2)c1` [Compound 1322, (2R,3R,4R,5S)-2-(hydroxymethyl)-1-{[6-({[3-methyl-5-(pyrimidin-2-yl)phenyl]amino}methyl)pyridin-2-yl]methyl}piperidine-3,4,5-triol]: the IC50 in test [1] came to 1110 nM; in test [2] it was 99000 nM.
As for `Cc1cc(NCc2ccc(CN3C[C@H](O)[C@@H](O)[C@H](O)[C@H]3CO)cc2)cc(-n2ccnn2)c1` [Compound 1323, (2R,3R,4R,5S)-2-(hydroxymethyl)-1-{[4-({[3-methyl-5-(1H-1,2,3-triazol-1-yl)phenyl]amino}methyl)phenyl]methyl}piperidine-3,4,5-triol], the values for the half-inhibitory concentration (IC50) in test [1] and in test [2] were 76 nM and over 100000 nM, respectively.
The corresponding values for `OC[C@@H]1[C@@H](O)[C@H](O)[C@@H](O)CN1Cc1cnc(CNc2cc(-c3ncccn3)cc(C3CC3)c2)cn1` [Compound 1329, (2R,3R,4R,5S)-1-{[5-({[3-cyclopropyl-5-(pyrimidin-2-yl)phenyl]amino}methyl)pyrazin-2-yl]methyl}-2-(hydroxymethyl)piperidine-3,4,5-triol] are 50 nM and 82900 nM.
For `Cc1cc(NCc2cnc(CN3C[C@H](O)[C@@H](O)[C@H](O)[C@H]3CO)cn2)cc(-c2ccc[nH]2)c1` [Compound 1330, (2R,3R,4R,5S)-2-(hydroxymethyl)-1-{[5-({[3-methyl-5-(1H-pyrrol-2-yl)phenyl]amino}methyl)pyrazin-2-yl]methyl}piperidine-3,4,5-triol], in that order: 90 nM and 13200 nM.
